Results taken from the CheMixHub viscosity set.
± gives the uncertainty stated by the source.

Test: xn = mol fraction of the nth substance listed

C[Si]1(C)O[Si](C)(C)O[Si](C)(C)O[Si](C)(C)O1 + c1ccccc1
viscosity (298.15 K, 101 kPa, x1 = 0.0341): 0.6224 ± 0.006 mPa·s | viscosity (298.15 K, 101 kPa, x1 = 0.0699): 0.6486 ± 0.0065 mPa·s | viscosity (298.15 K, 101 kPa, x1 = 0.1407): 0.7099 ± 0.0077 mPa·s | viscosity (298.15 K, 101 kPa, x1 = 0.2235): 0.7944 ± 0.0097 mPa·s | viscosity (298.15 K, 101 kPa, x1 = 0.2938): 0.875 ± 0.012 mPa·s | viscosity (298.15 K, 101 kPa, x1 = 0.3751): 0.9814 ± 0.014 mPa·s | viscosity (298.15 K, 101 kPa, x1 = 0.4689): 1.113 ± 0.018 mPa·s | viscosity (298.15 K, 101 kPa, x1 = 0.6211): 1.363 ± 0.026 mPa·s | viscosity (298.15 K, 101 kPa, x1 = 0.6777): 1.466 ± 0.029 mPa·s | viscosity (298.15 K, 101 kPa, x1 = 0.751): 1.608 ± 0.034 mPa·s | viscosity (298.15 K, 101 kPa, x1 = 0.8434): 1.804 ± 0.042 mPa·s | viscosity (298.15 K, 101 kPa, x1 = 0.8753): 1.88 ± 0.045 mPa·s | viscosity (298.15 K, 101 kPa, x1 = 0.9028): 1.939 ± 0.047 mPa·s | viscosity (298.15 K, 101 kPa, x1 = 0.9291): 2.01 ± 0.05 mPa·s | viscosity (308.15 K, 101 kPa, x1 = 0.0886): 0.5768 ± 0.0065 mPa·s | viscosity (308.15 K, 101 kPa, x1 = 0.3517): 0.818 ± 0.012 mPa·s | viscosity (308.15 K, 101 kPa, x1 = 0.602): 1.127 ± 0.022 mPa·s | viscosity (308.15 K, 101 kPa, x1 = 0.7741): 1.39 ± 0.031 mPa·s | viscosity (308.15 K, 101 kPa, x1 = 0.8544): 1.527 ± 0.036 mPa·s | viscosity (308.15 K, 101 kPa, x1 = 0.9373): 1.682 ± 0.043 mPa·s | viscosity (318.15 K, 101 kPa, x1 = 0.0888): 0.507 ± 0.006 mPa·s | viscosity (318.15 K, 101 kPa, x1 = 0.3526): 0.714 ± 0.011 mPa·s | viscosity (318.15 K, 101 kPa, x1 = 0.6036): 0.971 ± 0.019 mPa·s | viscosity (318.15 K, 101 kPa, x1 = 0.7763): 1.186 ± 0.027 mPa·s | viscosity (318.15 K, 101 kPa, x1 = 0.8562): 1.298 ± 0.031 mPa·s | viscosity (318.15 K, 101 kPa, x1 = 0.9134): 1.393 ± 0.035 mPa·s

ClCCCl + c1ccccc1
viscosity (293.15 K, 101 kPa, x2 = 0.09): 0.7903 ± 0.021 mPa·s | viscosity (293.15 K, 101 kPa, x2 = 0.2): 0.7512 ± 0.02 mPa·s | viscosity (293.15 K, 101 kPa, x2 = 0.3): 0.7172 ± 0.019 mPa·s | viscosity (293.15 K, 101 kPa, x2 = 0.392): 0.6824 ± 0.018 mPa·s | viscosity (293.15 K, 101 kPa, x2 = 0.525): 0.6583 ± 0.017 mPa·s | viscosity (293.15 K, 101 kPa, x2 = 0.577): 0.6545 ± 0.017 mPa·s | viscosity (293.15 K, 101 kPa, x2 = 0.683): 0.634 ± 0.017 mPa·s | viscosity (293.15 K, 101 kPa, x2 = 0.81): 0.636 ± 0.017 mPa·s | viscosity (293.15 K, 101 kPa, x2 = 0.9): 0.6404 ± 0.017 mPa·s | viscosity (298.15 K, 101 kPa, x2 = 0.2): 0.686 ± 0.0077 mPa·s | viscosity (298.15 K, 101 kPa, x2 = 0.4): 0.634 ± 0.0067 mPa·s | viscosity (298.15 K, 101 kPa, x2 = 0.6): 0.601 ± 0.0061 mPa·s | viscosity (298.15 K, 101 kPa, x2 = 0.8): 0.59 ± 0.0059 mPa·s | viscosity (313.15 K, 101 kPa, x2 = 0.09): 0.6098 ± 0.016 mPa·s | viscosity (313.15 K, 101 kPa, x2 = 0.2): 0.5936 ± 0.016 mPa·s | viscosity (313.15 K, 101 kPa, x2 = 0.525): 0.5387 ± 0.014 mPa·s | viscosity (313.15 K, 101 kPa, x2 = 0.81): 0.508 ± 0.013 mPa·s

ClCCl + c1ccccc1
viscosity (293.15 K, 101.33 kPa, x1 = 0.1454): 0.591 ± 0.015 mPa·s | viscosity (293.15 K, 101.33 kPa, x1 = 0.259): 0.559 ± 0.015 mPa·s | viscosity (293.15 K, 101.33 kPa, x1 = 0.3662): 0.531 ± 0.014 mPa·s | viscosity (293.15 K, 101.33 kPa, x1 = 0.4451): 0.513 ± 0.013 mPa·s | viscosity (293.15 K, 101.33 kPa, x1 = 0.5158): 0.498 ± 0.013 mPa·s | viscosity (293.15 K, 101.33 kPa, x1 = 0.5932): 0.484 ± 0.013 mPa·s | viscosity (293.15 K, 101.33 kPa, x1 = 0.6593): 0.471 ± 0.012 mPa·s | viscosity (293.15 K, 101.33 kPa, x1 = 0.714): 0.463 ± 0.012 mPa·s | viscosity (293.15 K, 101.33 kPa, x1 = 0.764): 0.456 ± 0.012 mPa·s | viscosity (298.15 K, 101.33 kPa, x1 = 0.2149): 0.535 ± 0.014 mPa·s | viscosity (298.15 K, 101.33 kPa, x1 = 0.2959): 0.514 ± 0.013 mPa·s | viscosity (298.15 K, 101.33 kPa, x1 = 0.3817): 0.497 ± 0.013 mPa·s | viscosity (298.15 K, 101.33 kPa, x1 = 0.4921): 0.477 ± 0.012 mPa·s | viscosity (298.15 K, 101.33 kPa, x1 = 0.5445): 0.466 ± 0.012 mPa·s | viscosity (298.15 K, 101.33 kPa, x1 = 0.5957): 0.458 ± 0.012 mPa·s | viscosity (298.15 K, 101.33 kPa, x1 = 0.6358): 0.452 ± 0.012 mPa·s | viscosity (298.15 K, 101.33 kPa, x1 = 0.6923): 0.445 ± 0.012 mPa·s | viscosity (303.15 K, 101.33 kPa, x1 = 0.1659): 0.516 ± 0.013 mPa·s | viscosity (303.15 K, 101.33 kPa, x1 = 0.2665): 0.494 ± 0.013 mPa·s | viscosity (303.15 K, 101.33 kPa, x1 = 0.3831): 0.468 ± 0.012 mPa·s | viscosity (303.15 K, 101.33 kPa, x1 = 0.4907): 0.446 ± 0.012 mPa·s | viscosity (303.15 K, 101.33 kPa, x1 = 0.5944): 0.429 ± 0.011 mPa·s | viscosity (303.15 K, 101.33 kPa, x1 = 0.6777): 0.419 ± 0.011 mPa·s | viscosity (303.15 K, 101.33 kPa, x1 = 0.7557): 0.412 ± 0.011 mPa·s | viscosity (303.15 K, 101.33 kPa, x1 = 0.8164): 0.406 ± 0.011 mPa·s

CC(=O)O + c1ccncc1
viscosity (293.15 K, 101 kPa, x2 = 0.104): 4.421 ± 0.12 mPa·s | viscosity (293.15 K, 101 kPa, x2 = 0.2205): 5.037 ± 0.14 mPa·s | viscosity (293.15 K, 101 kPa, x2 = 0.383): 3.024 ± 0.08 mPa·s | viscosity (293.15 K, 101 kPa, x2 = 0.401): 2.885 ± 0.077 mPa·s | viscosity (293.15 K, 101 kPa, x2 = 0.481): 2.188 ± 0.058 mPa·s | viscosity (293.15 K, 101 kPa, x2 = 0.579): 1.762 ± 0.047 mPa·s | viscosity (293.15 K, 101 kPa, x2 = 0.738): 1.289 ± 0.034 mPa·s | viscosity (303.15 K, 101 kPa, x1 = 0.135): 0.9842 ± 0.026 mPa·s | viscosity (303.15 K, 101 kPa, x1 = 0.2599): 1.139 ± 0.03 mPa·s | viscosity (303.15 K, 101 kPa, x1 = 0.3756): 1.346 ± 0.035 mPa·s | viscosity (303.15 K, 101 kPa, x1 = 0.4837): 1.648 ± 0.043 mPa·s | viscosity (303.15 K, 101 kPa, x1 = 0.5841): 2.075 ± 0.054 mPa·s | viscosity (303.15 K, 101 kPa, x1 = 0.6781): 2.704 ± 0.071 mPa·s | viscosity (303.15 K, 101 kPa, x1 = 0.766): 3.398 ± 0.088 mPa·s | viscosity (303.15 K, 101 kPa, x1 = 0.8509): 3.624 ± 0.094 mPa·s | viscosity (303.15 K, 101 kPa, x1 = 0.9266): 2.558 ± 0.067 mPa·s | viscosity (308.15 K, 101.33 kPa, x2 = 0.15): 3.2 ± 0.037 mPa·s | viscosity (308.15 K, 101.33 kPa, x2 = 0.2): 3.17 ± 0.038 mPa·s | viscosity (308.15 K, 101.33 kPa, x2 = 0.25): 2.887 ± 0.035 mPa·s | viscosity (308.15 K, 101.33 kPa, x2 = 0.3): 2.55 ± 0.031 mPa·s | viscosity (308.15 K, 101.33 kPa, x2 = 0.4): 1.928 ± 0.024 mPa·s | viscosity (308.15 K, 101.33 kPa, x2 = 0.6): 1.27 ± 0.016 mPa·s | viscosity (308.15 K, 101.33 kPa, x2 = 0.8): 1.052 ± 0.012 mPa·s | viscosity (313.15 K, 101.33 kPa, x1 = 0.5): 1.68 ± 0.084 mPa·s | viscosity (313.15 K, 101.33 kPa, x1 = 0.8): 2.91 ± 0.15 mPa·s | viscosity (313.15 K, 101.33 kPa, x1 = 0.825): 2.93 ± 0.15 mPa·s | viscosity (313.15 K, 101.33 kPa, x1 = 0.85): 2.85 ± 0.14 mPa·s | viscosity (318.15 K, 101.33 kPa, x2 = 0.15): 2.35 ± 0.03 mPa·s | viscosity (318.15 K, 101.33 kPa, x2 = 0.2): 2.38 ± 0.03 mPa·s | viscosity (318.15 K, 101.33 kPa, x2 = 0.25): 2.2 ± 0.027 mPa·s | viscosity (318.15 K, 101.33 kPa, x2 = 0.3): 1.985 ± 0.024 mPa·s | viscosity (318.15 K, 101.33 kPa, x2 = 0.4): 1.52 ± 0.018 mPa·s | viscosity (318.15 K, 101.33 kPa, x2 = 0.6): 1.07 ± 0.013 mPa·s | viscosity (318.15 K, 101.33 kPa, x2 = 0.8): 0.896 ± 0.01 mPa·s

CCOC(N)=O + c1ccncc1
viscosity (298.15 K, 101 kPa, x1 = 0.0815): 1.07 ± 0.21 mPa·s | viscosity (298.15 K, 101 kPa, x1 = 0.1351): 1.202 ± 0.24 mPa·s
